Test results from patent publication US9056108B2, “Method of treating atrial fibrillation” (Gilead Sciences, Inc., priority 2009, dated 2015).
Like-named read-outs stand apart in the source and are kept apart here.

Legend:
[1] = test system: rabbit isolated heart treated with acetylcholine; assay: Electrically-induced atrial fibrillation in rabbit isolated heart treated with acetylcholine
Procedure: Each rabbit was sedated using intramuscular injections of 6 mg/kg xylazine and 40 mg/kg ketamine and then anesthetized using a “cocktail” of ketamine (15 mg/kg)+xylazine (4 mg/kg) in 1.5 ml saline. The ketamine/xylazine cocktail was administered as an i.v. bolus via the marginal ear vein. After anesthesia was confirmed, the thorax was opened and the heart was quickly excised. The heart was placed in a modified Krebs-Henseleit (K-H) physiological saline solution at room temperature. The K-H solution contained (in mmol/L): NaCl 118, KCl 2.8, KH2PO4 1.2, CaCl2 2.5, MgSO4 0.5, pyruvate 2.0, glucose 5.5, Na2EDTA 0.57 and NaHCO3 25. The solution was continuously gassed with 95% O2 and 5% CO2, and its pH was adjusted to 7.4. The aorta was rapidly catheterized and the heart was perfused by the method of Langendorff with K-H solution warmed to 36-36.5° C. at a rate of 20 mL/min with a roller pump (Gilson Minipuls3, Middleton, Wis.). CPP was measured (with a Biopac MP 150 pressure transducer, Goleta, Calif.) from a side port of the aortic catheter. To facilitate exit of fluid from the chamber of the left ventricle (LV), the leaflets of the mitral valve were trimmed with fine spring-handled scissors. The right atrial wall was partially removed. […]

[2] = test system: ACh-mediated persistent AF in isolated canine coronary-perfused right atria; assay: Acetylcholine (ACh)-mediated persistent AF model in coronary-perfused right atria; details: ranolazine 5 μM, dronedarone 10 μM
Procedure: To assess the anti-AF potential of ranolazine, dronedarone, and their combination, we used an acetylcholine (ACh, 1.0 μM)-mediated AF model. In the presence of ACh, premature electrical stimulation (PES) or rapid pacing (CL=50-80 ms) induces persistent AF in 100% of canine coronary-perfused right atrial preparations.^9 The effect of the drugs was assessed to prevent (series 1) the induction of AF. In a separate set of preparations, the ability of these agents was evaluated to terminate (series 2) persistent AF. In the first series, ACh was added to the perfusate 20-30 min after the start of perfusion with 5 μM ranolazine, 10 μM dronedarone, or the combination of these agents. This was followed by attempts to induce the arrhythmia electrically. In the second series, the agents were added to the perfusate during ACh-mediated persistent AF (on the 5-6th minutes after the start of the arrhythmia). In cases in which the drug terminated AF, we attempted to re-induce the arrhythmia with rapid pacing.

[3] = test system: isolated canine coronary-perfused right atria; assay: Electrophysiology in isolated coronary-perfused canine right atrial preparations; details: in presence of ACh 1 μM, ranolazine 5 μM, dronedarone 10 μM
Procedure: Experiments were performed using isolated coronary-perfused canine right atrial (RA) and left ventricular (LV) preparations (≈3×1.5×1 cm). Isolation and perfusion of the preparations were as previously described.^9, 15, 16 Briefly, preparations were dissected from hearts removed from anesthetized (sodium pentobarbital) adult mongrel dogs (20-30 kg). Unfolded RA with attached rim of the right ventricle was cannulated and perfused with cold cardioplegic solution (4-8° C.) through the ostium of the right coronary artery; the LV wedge was perfused through a diagonal branch of the left anterior descending coronary artery. Unperfused tissue was removed with a razor blade. Cut ventricular and atrial branches were ligated using silk thread. The preparations were then transferred to a temperature-controlled bath and arterially-perfused with Tyrode's solution by use of a roller pump. The composition of the Tyrode's solution was (in mM): NaCl 129, KCl 4, NaH2PO4 0.9, NaHCO3 20, CaCl2 1.8, MgSO4 0.5, and D-glucose 5.5, buffered with 95% O2 and 5% CO2 (37±0.5° C., pH=7.35)
Transmembrane action potential (AP) recordings were obtained using floating glass microelectrodes at a sampling rate of 40 kHz. A pseudo-electrocardiogram (ECG) was recorded using two electrodes consisting of Ag/AgCl half cells placed in the Tyrode's solution bathing the preparation, 1.0 to 1.5 cm from the two opposite sides of the atrial or ventricular coronary-perfused preparations. Conduction time was approximated by the duration of “P wave” in atria and “QRS complex” in ventricles, at a level representing 10% of “P wave” and “QRS” amplitude. Diastolic threshold of excitation (DTE) was determined by increasing stimulus intensity in 0.01 mA steps. Effective refractory period (ERP) was measured by delivering premature stimuli at progressively shorter S1-S2 intervals after every 10 basic beats at a pacing cycle length (CL) of 500 ms (5 ms steps; 2 times DTE). Post-repolarization refractoriness (PRR) was recognized when ERP exceeded action potential duration measured at 90% repolarization (APD90) in the ventricle and APD measured at 70% repolarization (APD70) in atria. Ventricular ERP was coincident with APD90, whereas atrial ERP was generally coincident with APD70-75.^9 The shortest S1-S1 permitting 1:1 activation was measured by progressively shortening pacing CL starting from a CL of 500 ms.
Stable AP recordings could not be readily obtained in the vigorously contracting perfused preparations. The largest recorded maximum rate of rise of the AP upstroke (Vmax) values per experimental condition were taken for statistical comparison. Only APs having amplitudes of at least 100 mV were considered in the analysis. The largest Vmax criterion was used because this was associated with the largest amplitude and the most negative resting membrane potential, depicting full or near full impalement. In determining use-dependent depression of Vmax, values were normalized to the Vmax value at a CL of 500 ms for each experiment and then averaged.
Because of their dependence on peak INa, Vmax, DTE, PRR, and conduction time as well the shortest S1-S1 interval permitting 1:1 activation are referred to as INa-dependent parameters.
The equilibration period for the coronary-perfused preparations was 30-120 min. The preparations were exposed to 5 μM ranolazine, 10 μM dronedarone (after 30 min washout of ranolazine), and the combination of these agents for at a period of at least 20 min. In time-control experiments, 20 minutes was sufficient to achieve steady-state in the effects of each of the drugs to alter electrophysiologic parameters. Recordings were obtained at a cycle length (CL) of 500 and 300 ms, unless otherwise indicated. […] When determining the shortest S1-S1 pacing rate permitting 1:1 activation, the stimulation intensity was DTE x 2, determined at a CL of 500 ms.

[4] = test system: female rabbit isolated heart treated with E-4031; assay: Torsades de pointes in rabbit isolated heart treated with E-4031; details: E-4031 60 nM
Procedure: Each rabbit was sedated using intramuscular injections of 6 mg/kg xylazine and 40 mg/kg ketamine and then anesthetized using a “cocktail” of ketamine (15 mg/kg)+xylazine (4 mg/kg) in 1.5 ml saline. The ketamine/xylazine cocktail was administered as an i.v. bolus via the marginal ear vein. After anesthesia was confirmed, the thorax was opened and the heart was quickly excised. The heart was placed in a modified Krebs-Henseleit (K-H) physiological saline solution at room temperature. […] CPP was measured (with a Biopac MP 150 pressure transducer, Goleta, Calif.) from a side port of the aortic catheter. To facilitate exit of fluid from the chamber of the left ventricle (LV), the leaflets of the mitral valve were trimmed with fine spring-handled scissors. The right atrial wall was partially removed.
Complete AV block was induced by thermo-ablation of the AV nodal area. […] A bipolar Teflon-coated electrode was placed on the right ventricular septum to pace the heart. Electrical stimuli 3 ms in width and 3-fold threshold amplitude were delivered to the pacing electrode at a frequency of 1 Hz throughout the experiments using a Grass S48 stimulator (W. Warwick, R.I.).
After initiation of ventricular pacing, a 30-40 min equilibration delay was allowed for heart rate (and CPP) to achieve a steady state, an essential experimental condition for recording a good quality monophasic action potential (MAP) recording.
Monophasic action potential (MAP) and ECG electrodes from Harvard Apparatus Inc. (Holliston, Mass.) were used to record heart rate (in beats per minute, or bpm), left ventricular MAPs and a bipolar ECG MAP electrodes were pressure contact Ag—AgCl cells attached to a circular holder with springs to keep the electrodes in contact with the LV epicardial surface. Two MAP electrodes were placed on the epicardial ventricular free wall below the level of the atrial-ventricular valves, one at the base to record a basal MAP and one at the apex to record an apical MAP. […] Signals were saved on a computer hard disk for subsequent analysis. Bipolar electrocardiograms (ECG) were generated using an isolated-heart ECG apparatus (Harvard Apparatus, Holliston, Mass.) attached to Biopac amplifier system.

[5] = test system: spontaneous (intrinsic) atrial rate in guinea pig isolated hearts; assay: Spontaneous atrial rate in guinea pig isolated hearts; details: verapamil 10 μM; from 225±3
Description: To perfuse the heart by the Langendorff method, the transected aorta was slid onto a glass cannula and secured by a ligature. […] To facilitate the exit of fluid from the left ventricle, the leaflets of the mitral valve were trimmed with fine spring-handled scissors. […] Experimental interventions were always preceded and followed by control measurements.

patients with AF = details: DIONYSOS trial, 6 months of follow-up; cited from earlier work
[6] = cited from earlier work
[7] = ACh 1 μM-mediated persistent AF

## CC(=O)OCC[N+](C)(C)C [ACh, Acetylcholine]
[1]; S1S2 protocol, acetylcholine 0.6-1 μM, ranolazine 6 μM in presence of 0.3 μM dronedarone
  Inducibility of AF: 100%
[2]; [7]
  Termination Persistent AF: 0%
  Termination Persistent AF (atria terminated/atria tested): 0/10
[2]; in presence of ACh 1 μM
  Induction of Persistent AF: 100%
[3]; in ms (unit assumed)
  Shortest S1-S1 (shortest CL permitting 1:1 activation): 56 ± 7
[3]; pectinate muscle, CL of 500 ms
  APD90: 41 ± 6 ms
  ERP: 52 ± 9 ms

## Cc1cccc(CCN2CCC(C(=O)c3ccc(NS(C)(=O)=O)cc3)CC2)n1 [E-4031, N-[4-[[1-[2-(6-Methyl-2-pyridinyl)ethyl]-4-piperidinyl]carbonyl]phenyl]methanesulfonamide]
[4]; dronedarone 10 μM
  Occurrences of torsades de pointes (TdP) (hearts): 4/6
[4]; dronedarone 0.1-0.3 μM
  TdP (FIG. 18): induced spontaneous and 3-sec pause-triggered episodes of TdP
[4]; dronedarone 0.3-10 μM, ranolazine 6 and 10 μM
  Incidence of TdP and EADs: markedly increased the incidence of torsades de pointes

## COc1ccc(CCN(C)CCCC(C#N)(c2ccc(OC)c(OC)c2)C(C)C)cc1OC (stereo not shown) [verapamil]
[5]
  Spontaneous atrial rate: 25±24 beats/min

## O=C(NCC1CCCCN1)c1cc(OCC(F)(F)F)ccc1OCC(F)(F)F (stereo not shown) [Flecainide]
[1]; in presence of ACh, dronedarone 0.3 μM alone, flecainide positive control
  Abolition of inducible AF (hearts): abolished all episodes of AF

## CCCCc1oc2ccccc2c1C(=O)c1cc(I)c(OCCN(CC)CC)c(I)c1 [amiodarone]
Patients with AF
  Rate of recurrence of AF: 42%
[6]; after one year
  Patients who discontinue use due to intolerant side effects: 8-18%
[6]; first year of treatment
  Extracardiac complications: up to 15%
[6]; longer term treatment
  Extracardiac complications: up to 50%
